Earlier results, collected in patent EP3277282B1 (Istanbul Universitesi Rektorlugu, priority 2015, dated 2016).

Tests used:
[1] = given to human by oral route

## Cc1nc(Nc2ncc(C(=O)Nc3c(C)cccc3Cl)s2)cc(N2CCN(CCO)CC2)n1 [Dasatinib, N-(2-chloro-6-methylphenyl)-2-[[6-[4-(2-hydroxyethyl)-1-piperazinyl]-2-methyl]-4-pyrimidinyl]amino]-5-thiazolecarboxamide mono-hydrate]
[1]
  systemic side effects: bleeding in the intestines
other
  solubility in ethanol, methanol and organic solvents: soluble
